These results are taken from US20100247658A1, “ORGANIC COMPOUNDS” (priority 2007, published 2010).

For data set [1] the following is noted: micronised, heated for 5 hours at 70° C. in a thermal oven; cited from earlier work.
The conditions of data set [2]: prior to micronisation.

salbutamol sulfate: the “recrystallisation of amorphous parts / stable product” value in data set [1] was “failed to lead to recrystallisation”.
The compound `C[N+]1(C)CCC(OC(=O)C(O)(c2ccccc2)C2CCCC2)C1.[Br-]` (centres unmarked) [glycopyrrolate, 3-[(cyclopentyl-hydroxyphenylacetyl)oxy]-1,1-dimethyl-pyrrolidinium bromide] gave a dispersive surface energy in data set [2] of 48 mJ/m^2.
